Experimental findings from US7642350B2, “Purine derivatives” (Pfizer Limited, priority 2005, dated 2010) are described below.

Structures are written as SMILES. Where two headings read alike, the source gives them in different places. A value given as a limit tells only on which side of the number the result lay.

The target in experiment [1] is T1, TLR7 receptor (Homo sapiens, UniProt Q9NYK1).
T1 sequence (Q9NYK1 27-1049): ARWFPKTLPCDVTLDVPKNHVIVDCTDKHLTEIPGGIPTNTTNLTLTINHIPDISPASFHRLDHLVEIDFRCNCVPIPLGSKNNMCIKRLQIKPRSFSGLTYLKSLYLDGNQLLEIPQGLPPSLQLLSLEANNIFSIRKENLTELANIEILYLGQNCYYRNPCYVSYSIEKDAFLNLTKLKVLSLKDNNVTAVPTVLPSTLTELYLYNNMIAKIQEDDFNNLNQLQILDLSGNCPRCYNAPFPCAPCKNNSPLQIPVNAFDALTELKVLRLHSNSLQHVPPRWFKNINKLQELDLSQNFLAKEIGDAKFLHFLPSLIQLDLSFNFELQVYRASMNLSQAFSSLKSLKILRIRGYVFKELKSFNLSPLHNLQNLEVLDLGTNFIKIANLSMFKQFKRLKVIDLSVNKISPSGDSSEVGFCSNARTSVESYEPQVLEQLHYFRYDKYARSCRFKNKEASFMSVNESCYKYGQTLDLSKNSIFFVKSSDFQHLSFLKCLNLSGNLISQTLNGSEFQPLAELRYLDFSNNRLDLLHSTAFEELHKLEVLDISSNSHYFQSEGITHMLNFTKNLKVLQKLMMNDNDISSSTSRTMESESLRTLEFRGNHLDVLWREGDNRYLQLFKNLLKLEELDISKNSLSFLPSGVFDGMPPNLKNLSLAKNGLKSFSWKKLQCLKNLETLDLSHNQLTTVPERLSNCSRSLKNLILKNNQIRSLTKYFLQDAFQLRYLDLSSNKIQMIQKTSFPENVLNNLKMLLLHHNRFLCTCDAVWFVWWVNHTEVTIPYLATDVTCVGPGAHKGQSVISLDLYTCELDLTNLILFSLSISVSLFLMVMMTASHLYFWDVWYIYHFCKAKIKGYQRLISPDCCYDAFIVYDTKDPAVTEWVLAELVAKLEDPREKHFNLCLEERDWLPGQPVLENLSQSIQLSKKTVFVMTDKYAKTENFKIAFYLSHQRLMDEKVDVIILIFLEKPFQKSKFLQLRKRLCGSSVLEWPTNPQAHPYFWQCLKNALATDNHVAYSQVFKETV
The experiment in a line: cell-based. The conditions noted are these: for inhibition at 10 µM: read-out: inhibition at 10 μM.
Experimental: (§1) PBL contain as a subpopulation plasmacytoid dendritic cells which are the natural interferon producing cells during an infection and as such are an excellent model in which to profile interferon inducers. As an extremely sensitive antiviral bioassay, supernatant taken from PBL is assayed for antiviral activity in the HCV replicon system.
(§2) The HCV replicon (Huh-5-2[I389luc-ubi-neo-NS3-3′/ET]) is an in vitro model of HCV replication in which the luciferase reporter is incorporated into HCV sequences and stably maintained in the human hepatoma cell line Huh-7. The firefly luciferase reporter is expressed as a luciferase-ubiquitin-neomycin phosphotransferase fusion protein which is cleaved by host proteases to release luciferase. The replicon also contains an internal EMCV IRES, which drives translation of HCV NS3-5B polyprotein, which harbour cell culture adapted mutations to permit high cloning efficiency. […] Firefly luciferase activity is detected using a Bright-Glo™ Luciferase Assay System manufactured by Promega.
(§3) An initial 3 fold serial dilution series of compounds in 100% DMSO is prepared from stocks. The dilution series is then further diluted 100 fold with complete RPMI—FCS. The final concentration of DMSO in the assay is thus 0.1% and that of the test compound is 1/1000 in the 100% DMSO dilution series.
(§4) PBL are prepared seeded at 5×10^5/well/90 μl into the previously prepared compound containing assay plates (96 well clear bottomed TC grade) and incubated for 24 h.
(§5) LucUbiNeo HCV replicon cells are seeded at 10^4/well/90 μl. These are incubated for 24 h. After 24 h 10 μl of medium is transferred from the PBL assay plates to the HCV replicon plates and incubated for a further 48 h.

Experiment [2] has as its target T1, TLR7 receptor. The conditions noted are these: read-out: EC50 (antiviral EC50); concentration of test compound applied to PBL (24 h) giving 50% reduction of HCV replicon levels after transfer of PBL medium to Huh-5-2 luciferase replicon cells (48 h).
Experimental: as §1, §2, §3, §4, §5

A word on the EC50: it is the concentration at which the effect is half-maximal. By inhibition is commonly meant the drop in the measured response relative to a control, in per cent. For the compound `Nc1nc(C(=O)NCC2CC2)nc2c1[nH]c(=O)n2Cc1ccccc1` [Example 1, 6-Amino-9-benzyl-8-oxo-8,9-dihydro-7H-purine-2-carboxylic acid cyclopropylmethyl-amide], at TLR7 receptor [1], it took 30 nM to reach a half-maximal effect (EC50) and the inhibition at 10 µM is greater than 50%.

As for `Cc1ccc(S(=O)(=O)NC(=O)c2nc(N)c3[nH]c(=O)n(Cc4ccccc4)c3n2)cc1` [Example 221, 6-Amino-9-benzyl-N-(toluylsulfonyl)-8-oxo-8,9-dihydro-7H-purine-2-carboxamide], the inhibition at 10 µM at TLR7 receptor [1] is greater than 50%.

With `CNC(=O)c1nc(N)c2[nH]c(=O)n(Cc3ccccc3)c2n1` [Example 5], on TLR7 receptor [1], the EC50 is 42 nM and the inhibition at 10 µM is greater than 50%.

For the compound `COCCn1c(=O)[nH]c2c(N)nc(C(=O)N(C)Cc3ccccc3)nc21` [Example 36], the inhibition at 10 µM on TLR7 receptor [1] was greater than 50%.

Consider `Nc1nc(C(=O)NCc2ccccc2)nc2c1[nH]c(=O)n2Cc1ccccc1` [Example 14], for which, on TLR7 receptor [1], the inhibition at 10 µM was greater than 50%.

For the compound `CCCCS(=O)(=O)NC(=O)c1nc(N)c2[nH]c(=O)n(Cc3ccccc3)c2n1` [Example 226], on TLR7 receptor [1], the inhibition at 10 µM was greater than 50%.

Consider `COCCn1c(=O)[nH]c2c(N)nc(C(=O)NCc3ccccc3)nc21` [Example 33], for which, on TLR7 receptor [1], the inhibition at 10 µM is greater than 50%.

As for `Nc1nc(C(=O)N2CCC2)nc2c1[nH]c(=O)n2Cc1ccccc1` [Example 4], at TLR7 receptor [1], the EC50 is 72 nM and the inhibition at 10 µM is greater than 50%.

With `Nc1nc(C(=O)NS(=O)(=O)c2ccccc2)nc2c1[nH]c(=O)n2Cc1ccccc1` [Example 222], the inhibition at 10 µM at TLR7 receptor [1] is greater than 50%.

As to `CCNC(=O)c1nc(N)c2[nH]c(=O)n(Cc3ccccc3)c2n1` [Example 6], at TLR7 receptor [1], the 50% effective concentration (EC50) was 17 nM and the inhibition at 10 µM was greater than 50%.

Turning to `NC(=O)c1nc(N)c2[nH]c(=O)n(Cc3ccccc3)c2n1` [Example 11], the inhibition at 10 µM at TLR7 receptor [1] is greater than 50%.

Take `COCCNC(=O)c1nc(N)c2[nH]c(=O)n(Cc3ccccc3)c2n1` [Example 2]: the inhibition at 10 µM on TLR7 receptor [1] is greater than 50%. For the same compound, at TLR7 receptor [2], the concentration for a half-maximal effect (EC50) amounted to 5 nM.
